Results from ChEMBL document CHEMBL1201862, “PubChem BioAssay data set” (2004).
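Following 48 hours of exposure in 96-well plates, responses at five concentrations were used to interpolate endpoints linearly. The concentration for 50% growth inhibition is given as GI50.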 Calls of active or inactive are those of the source. No stated cut-off is given here; in the data, active = GI50 up to about 1.1 µM and inactive = higher.

How the values were obtained:
Assay in all cases: NCI tumour cell line growth inhibition, 48 h
SF-539 = system: SF-539
OVCAR-4 = system: OVCAR-4
LOX IMVI = system: LOX IMVI
PC-3 = system: PC-3
SF-268 = system: SF-268
MCF7 = system: MCF7
RPMI-8226 = system: RPMI-8226
SK-OV-3 = system: SK-OV-3
T47D = system: T47D
MDA-MB-435 = system: MDA-MB-435
SW-620 = system: SW-620
EKVX = system: EKVX
MDA-MB-231 = system: MDA-MB-231
CCRF-CEM = system: CCRF-CEM
UO-31 = system: UO-31
COLO 205 = system: COLO 205
NCI-H226 = system: NCI-H226
M14 = system: M14
A498 = system: A498
RXF 393 = system: RXF 393

| SMILES | GI50 (SF-539) | GI50 (OVCAR-4) | GI50 (LOX IMVI) | GI50 (PC-3) | GI50 (SF-268) | GI50 (MCF7) | GI50 (RPMI-8226) | GI50 (SK-OV-3) | GI50 (T47D) | GI50 (MDA-MB-435) | GI50 (SW-620) | GI50 (EKVX) | GI50 (MDA-MB-231) | GI50 (CCRF-CEM) | GI50 (UO-31) | GI50 (COLO 205) | GI50 (NCI-H226) | GI50 (M14) | GI50 (A498) | GI50 (RXF 393) |
| --- | --- | --- | --- | --- | --- | --- | --- | --- | --- | --- | --- | --- | --- | --- | --- | --- | --- | --- | --- | --- |
| Cc1cnc2sn(-c3ccc(Oc4ccccc4)cc3)c(=O)c2c1 | 14 µM (inactive) | 17.9 µM (inactive) | 6.1 µM (inactive) | 13.4 µM (inactive) | 11.8 µM (inactive) | 22.4 µM (inactive) | 9.62 µM (inactive) | 25.8 µM (inactive) | 14 µM (inactive) | 13.3 µM (inactive) | 21.2 µM (inactive) | 13.4 µM (inactive) | 20.5 µM (inactive) | 5.11 µM (inactive) | 19.5 µM (inactive) | 20.5 µM (inactive) | 18.2 µM (inactive) | 7.43 µM (inactive) |  |  |
| COc1ccc(-c2csc(Cc3nc4ccccc4c(=O)n3-c3ccc(Cl)cc3)n2)cc1 |  | 52.6 µM (inactive) | 39.4 µM (inactive) | 29.4 µM (inactive) | 27.5 µM (inactive) | 32.8 µM (inactive) | 15.9 µM (inactive) | > 100 µM (inactive) |  | 28.5 µM (inactive) | 58.3 µM (inactive) | 18.2 µM (inactive) | 60.7 µM (inactive) | 28.9 µM (inactive) | 34.6 µM (inactive) | 34.9 µM (inactive) | 74.6 µM (inactive) | 21.7 µM (inactive) | 70.8 µM (inactive) | > 100 µM (inactive) |
| c1ccc(CCCCNCc2cc(CNCCCCc3ccccc3)cc(CNCCCCc3ccccc3)c2)cc1 | 0.8 µM (active) | 1.85 µM (inactive) | 0.308 µM (active) | 1.41 µM (inactive) | 1.53 µM (inactive) | 0.178 µM (active) | 0.16 µM (active) | 1.97 µM (inactive) | 1.79 µM (inactive) | 1.21 µM (inactive) | 0.301 µM (active) | 1.64 µM (inactive) | 1.61 µM (inactive) | 0.211 µM (active) | 0.261 µM (active) | 0.366 µM (active) | 2.6 µM (inactive) | 0.556 µM (active) |  | 1.31 µM (inactive) |
| CC1=NNC(=O)C1C1CC(c2c[nH]c3ccccc23)=NN(c2ccccc2)C1=O (stereo not drawn) | 87.3 µM (inactive) |  | 27.6 µM (inactive) | > 100 µM (inactive) | > 100 µM (inactive) |  | 60.3 µM (inactive) | > 100 µM (inactive) | > 100 µM (inactive) | 55.1 µM (inactive) | 42.3 µM (inactive) | > 100 µM (inactive) | > 100 µM (inactive) | 28.1 µM (inactive) | > 100 µM (inactive) | > 100 µM (inactive) | > 100 µM (inactive) | 66.4 µM (inactive) | > 100 µM (inactive) | > 100 µM (inactive) |
| COC[C@@H](/N=C/c1ccc(OC)cc1)C(C)C |  | > 100 µM (inactive) | > 100 µM (inactive) | > 100 µM (inactive) | > 100 µM (inactive) | > 100 µM (inactive) | > 100 µM (inactive) | > 100 µM (inactive) | > 100 µM (inactive) | > 100 µM (inactive) | > 100 µM (inactive) | > 100 µM (inactive) |  | > 100 µM (inactive) | > 100 µM (inactive) | 80.4 µM (inactive) |  | > 100 µM (inactive) |  | > 100 µM (inactive) |
| C=CCN1C[C@H](C)N([C@@H](c2ccc(C(=O)N3CCCCC3)cc2)c2cccc(OC)c2)C[C@H]1C | 27 µM (inactive) | 56.4 µM (inactive) | 14.4 µM (inactive) | 21.9 µM (inactive) | 52.7 µM (inactive) | 30.1 µM (inactive) |  | 89.5 µM (inactive) | 24.5 µM (inactive) | 35 µM (inactive) |  | 44.4 µM (inactive) | 30.1 µM (inactive) | 21.5 µM (inactive) | 24.4 µM (inactive) | 16.6 µM (inactive) | 45.4 µM (inactive) | 17.4 µM (inactive) | 29.4 µM (inactive) | 48 µM (inactive) |
| Cc1ccc(S(=O)(=O)NC(=O)NC(Cc2c[nH]c3ccccc23)C(=O)O)cc1 (stereo not drawn) | > 100 µM (inactive) | > 100 µM (inactive) | > 100 µM (inactive) | > 100 µM (inactive) | > 100 µM (inactive) |  | > 100 µM (inactive) | > 100 µM (inactive) | > 100 µM (inactive) |  | > 100 µM (inactive) |  | > 100 µM (inactive) | > 100 µM (inactive) | > 100 µM (inactive) | > 100 µM (inactive) |  | > 100 µM (inactive) |  | > 100 µM (inactive) |
| CC(CC=O)Nc1nn2c(=O)c3ccccc3nc2s1 (stereo not drawn) | > 100 µM (inactive) | > 100 µM (inactive) | > 100 µM (inactive) | > 100 µM (inactive) | > 100 µM (inactive) | > 100 µM (inactive) | > 100 µM (inactive) | > 100 µM (inactive) | > 100 µM (inactive) | > 100 µM (inactive) | > 100 µM (inactive) | > 100 µM (inactive) |  | > 100 µM (inactive) | 18.2 µM (inactive) | > 100 µM (inactive) | > 100 µM (inactive) | > 100 µM (inactive) | > 100 µM (inactive) | > 100 µM (inactive) |
| [O-][n+]1c2ccccc2[n+]([O-])c2cc(Br)ccc21 | 13.9 µM (inactive) | 18.9 µM (inactive) | 2.99 µM (inactive) |  | 13.7 µM (inactive) | 11.3 µM (inactive) | 8.05 µM (inactive) |  | 10.2 µM (inactive) | 18.2 µM (inactive) | 20.6 µM (inactive) | 16.7 µM (inactive) | 24.4 µM (inactive) | 0.0507 µM (active) | 9.48 µM (inactive) | 20.7 µM (inactive) | 21.6 µM (inactive) | 17.2 µM (inactive) | 17.9 µM (inactive) | 18.1 µM (inactive) |
| O=C(NNCc1ccc(Cl)cc1)Nc1cccc2ccccc12 | 47.4 µM (inactive) | > 100 µM (inactive) | > 100 µM (inactive) | > 100 µM (inactive) | 93.1 µM (inactive) | 26.8 µM (inactive) | 16.4 µM (inactive) |  | 28.6 µM (inactive) | 52.6 µM (inactive) | > 100 µM (inactive) | > 100 µM (inactive) |  | > 100 µM (inactive) | 84.1 µM (inactive) | > 100 µM (inactive) | > 100 µM (inactive) | > 100 µM (inactive) |  | > 100 µM (inactive) |
| COc1cc(-c2cc(=O)c3cc4c(cc3[nH]2)OCO4)cc(OC)c1O | > 10 µM (inactive) | > 10 µM (inactive) | > 10 µM (inactive) | > 10 µM (inactive) | > 10 µM (inactive) | > 10 µM (inactive) | > 10 µM (inactive) | > 10 µM (inactive) | > 10 µM (inactive) | > 10 µM (inactive) | > 10 µM (inactive) | > 10 µM (inactive) | > 10 µM (inactive) | > 10 µM (inactive) | > 10 µM (inactive) | > 10 µM (inactive) | > 10 µM (inactive) | > 10 µM (inactive) |  | > 10 µM (inactive) |
| CC1=N[C@@](C)(C2CC3C=CC2C3=O)COC1=O (stereo partly drawn) | > 100 µM (inactive) | > 100 µM (inactive) |  | > 100 µM (inactive) | > 100 µM (inactive) | > 100 µM (inactive) |  | > 100 µM (inactive) | > 100 µM (inactive) | > 100 µM (inactive) | > 100 µM (inactive) | > 100 µM (inactive) | > 100 µM (inactive) | > 100 µM (inactive) | > 100 µM (inactive) | > 100 µM (inactive) | > 100 µM (inactive) | > 100 µM (inactive) | > 100 µM (inactive) | > 100 µM (inactive) |
| Nc1nc(Cl)nc2c1ncn2C1CCC(COP(=O)(O)OP(=O)(O)OP(=O)(O)O)O1 (stereo not drawn) | 67.3 µM (inactive) | 24.9 µM (inactive) | 28.3 µM (inactive) | 23.1 µM (inactive) | 47.9 µM (inactive) | 29.4 µM (inactive) |  | 57.3 µM (inactive) | 23.8 µM (inactive) | 23 µM (inactive) | 32.4 µM (inactive) | 40.1 µM (inactive) | 26.8 µM (inactive) | 44.3 µM (inactive) | 12.7 µM (inactive) | 20.5 µM (inactive) | 27.7 µM (inactive) | 16.8 µM (inactive) | 26.1 µM (inactive) | 24.5 µM (inactive) |
| C[C@H]1O[C@@H](C(C)(C)C)OC(=O)[C@@H]1C(OC(=O)c1ccccc1)c1cccc2ccccc12 (stereo partly drawn) | > 100 µM (inactive) | > 100 µM (inactive) | > 100 µM (inactive) | > 100 µM (inactive) | > 100 µM (inactive) | > 100 µM (inactive) | > 100 µM (inactive) | > 100 µM (inactive) | 64.1 µM (inactive) | > 100 µM (inactive) | > 100 µM (inactive) | > 100 µM (inactive) | > 100 µM (inactive) | > 100 µM (inactive) | > 100 µM (inactive) | > 100 µM (inactive) | 8.87 µM (inactive) | > 100 µM (inactive) |  | > 100 µM (inactive) |
| Cc1ccnc2nc(-c3ccc4ccccc4c3)cc(O)c12 | 1.22 µM (inactive) | 1.71 µM (inactive) | 0.818 µM (active) |  | 3.1 µM (inactive) | 0.258 µM (active) | 0.641 µM (active) | 1.09 µM (active) | 7.82 µM (inactive) |  | 0.451 µM (active) | 4.36 µM (inactive) | 1.67 µM (inactive) | 1.04 µM (active) | 3.26 µM (inactive) | 0.621 µM (active) | 2.13 µM (inactive) | 1.22 µM (inactive) | 1.49 µM (inactive) |  |
